We go through 13 compounds from PubChem BioAssay (NCI).

What all share (assay): inhibition of tumour cell growth, NCI panel, 48 h
Assay [1] has as its system ACHN renal.
Assay [2] has as its system HOP-62 NSCLC.
The test system of assay [3] is HOP-92 NSCLC.
Assay [4] deals with MALME-3M melanoma.
The test system of assay [5] is NCI-H23 lung.
Assay [6] relates to NCI/ADR-RES ovarian.
The subject of assay [7] is OVCAR-4 ovarian.
Assay [8] relates to SF-539 CNS.
The subject of assay [9] is SNB-19 CNS.
For assay [10], the system named is U251 CNS.

“And” between values parts separate entries of the source, which are not always exact repeats. Identical values can stand only once.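 Exposure lasted 48 hours, with cells grown in 96-well plates and compounds tested at five concentrations. GI50 is the concentration that inhibits growth by half. At the TGI there is no net growth.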

For `O=CN/C=C/c1cccc(O)c1`, the TGI was 84.6 µM in [1]; 65.8 µM in assay [2]; more than 97.1 µM in assay [3]; more than 100 µM in assay [4]; 72.4 µM in [5]; more than 100 µM in [6]. Further, the TGI in assay [7] was more than 93.8 µM; in assay [8], more than 83 µM; in assay [9], more than 100 µM; in [10] it was more than 83 µM.
With `c1ccc(CN2CCC3(CC2)SSC2(CCN(Cc4ccccc4)CC2)S3)cc1`, the TGI in [1], in [2], in [3], in assay [4], in assay [5] and in assay [6] was more than 100 µM each time. Further, the TGI in [7], in assay [8] and in [10] was more than 100 µM in each case.
On to `COc1ccc2c(=O)cc(-c3ccncc3)oc2c1OC`, for which the TGI in [1] was more than 100 µM; in assay [2], more than 100 µM; in [3], 55.2 µM; in assay [4] it was 96.9 µM; in assay [5], more than 100 µM; in assay [6] it was more than 100 µM. Besides, the TGI in assay [7], in assay [9] and in assay [10] was more than 100 µM each time.
Take `COc1cccc2c1ccc1nc3cccc(C(=O)N[C@H](C)CN(C)C)c3nc12`: the GI50 in assay [1] was 0.0426 µM; in [2] it was 0.084 µM; in assay [4], 0.0806 µM; in assay [5], 0.0929 µM; in assay [6] it was 0.0721 µM; in assay [7], 0.0927 µM. Moreover, the values for the GI50 in assay [8], in assay [9] and in assay [10] were 0.157 µM, 0.0907 µM and 0.0441 µM, respectively. The TGI in assay [1] was 10.6 µM; in [2], 0.787 µM; in assay [4], 0.473 µM; in [5] it was 0.382 µM; in [6], 0.554 µM; in assay [7], 0.894 µM. Also, the TGI worked out at 1.8 µM in [8], 10.9 µM in [9] and 8.28 µM in [10].
As to `CCC(C)[C@H]1O[C@]2(C=C[C@@H]1C)C[C@@H]1C[C@@H](C/C=C(\C)[C@@H](OC3C[C@H](OC)C(O[C@H]4C[C@H](OC)[C@@H](O)[C@H](C)O4)[C@H](C)O3)[C@@H](C)/C=C/C=C3\CO[C@@H]4[C@H](O)C(C)=C[C@@H](C(=O)O1)[C@]34O)O2` (stereo partly specified), the GI50 in assay [1] was 1.72 µM; in [2], 1.37 µM; in assay [3], 0.65 µM; in assay [5] it was 1.23 µM; in assay [6], 1.41 µM; in assay [7], 1.67 µM. Also, the GI50 was 1.5 µM in [8], 3.38 µM in assay [9] and 1.42 µM in [10]. Moreover, the TGI worked out at 5.63 µM in assay [1]; 6.53 µM in assay [2]; 1.41 µM in [3]; 4.16 µM in assay [5]; 4.77 µM in assay [6]; 4.76 µM in assay [7]. For the same compound, the TGI in assay [8] was 4.49 µM; in [9], 41.1 µM; in assay [10] it was 6.47 µM.
Regarding `COc1ccc(-c2nc(-c3ccccc3)c(-c3ccccc3)[nH]2)cc1OC1CCCC1`, the GI50 in assay [1], in [2], in [4], in assay [5], in assay [6] and in [7] was more than 100 µM in each case. In addition, the GI50 in [8], in assay [9] and in [10] was more than 100 µM each time. Besides, the TGI in [1], in assay [2], in assay [4], in [5], in assay [6] and in [7] was more than 100 µM throughout. The TGI in assay [8], in assay [9] and in assay [10] was more than 100 µM in each case.
As to `O=S(=O)(Nc1ccc(Br)c(Cl)c1)c1ccc(-c2cnc(C3CC3)o2)cc1`, the GI50 in [1] was 0.562 µM; in assay [2], 0.58 µM; in assay [3], 0.487 µM; in assay [5], 1.27 µM; in assay [6], 0.43 µM; in assay [7] it was 2.67 µM. Also, the figures for the GI50 in assay [8], in assay [9] and in [10] were 0.374 µM, 0.517 µM and 0.507 µM, respectively. Moreover, the TGI is 18.2 µM in assay [1]; 19 µM in [2]; 8.72 µM in assay [3]; 15.6 µM in assay [5]; 6.86 µM in assay [6]; 21.9 µM in [7]. For the same compound, the TGI was 5.08 µM in assay [8], 16.2 µM in assay [9] and 15.4 µM in assay [10].
`O=C1c2cccc(NCCN=Cc3cc([N+](=O)[O-])ccc3O)c2C(=O)c2c(NCCN=Cc3cc([N+](=O)[O-])ccc3O)cccc21`: the GI50 is 5.61 µM in assay [1]; 3.37 µM in assay [2]; 3.03 µM in [3]; 16.7 µM in assay [4]; 5.8 µM in assay [5]; more than 100 µM in assay [6]. Further, the GI50 is 2.06 µM in assay [7], 6.95 µM in assay [9] and 2.65 µM in [10]. Also, the TGI in assay [1] is more than 100 µM; in assay [2] it was 59.8 µM; in assay [3], 84.1 µM; in assay [4], 83.2 µM; in assay [5] it was more than 100 µM; in assay [6], more than 100 µM. The TGI in [7] was more than 100 µM; in assay [9] it was more than 100 µM; in assay [10] it was 19.7 µM.
As to `N#CCCN(CCCN(CCCN(C(=O)Nc1ccccc1)c1ccccc1)C(=O)Nc1ccccc1)C(=O)Nc1ccccc1`, the TGI in assay [1] was more than 8.75 µM; in [2], more than 100 µM; in assay [3], 80.4 µM; in [4] it was > 8.75 µM and 67.2 µM; in assay [6], more than 100 µM; in assay [7], more than 100 µM. Besides, the TGI in assay [8] is more than 100 µM; in assay [9] it was more than 8.75 µM; in [10], more than 100 µM. For the same compound, the GI50 in assay [2] was more than 100 µM; in [4], 16 µM; in assay [6], more than 100 µM; in assay [8], more than 100 µM.
As to `Cc1cc(C(=C2C=CC(=Nc3ccccc3)C=C2)c2ccc(Nc3ccccc3)cc2)ccc1N`, the GI50 in assay [1] is 0.377 µM; in assay [3], 0.475 µM; in assay [4], 0.25 µM; in [5], 0.382 µM; in assay [6] it was 0.643 µM; in [7] it was 0.355 µM. Moreover, the GI50 in [8] is 0.328 µM; in assay [9] it was 0.397 µM; in assay [10], 0.185 µM. Further, the TGI in assay [1] came to 1.31 µM; in assay [3] it was 1.73 µM; in assay [4], 0.777 µM; in assay [5], 1.69 µM; in [6], 2.22 µM; in assay [7], 1.31 µM. Also, the figures for the TGI in [8], in assay [9] and in assay [10] were 1.16 µM, 1.56 µM and 0.39 µM, respectively.
For `OCC(O)C(Cl)CCl` (stereo unspecified), the TGI in assay [1], in assay [2], in [4], in assay [5], in assay [6] and in [7] was more than 100 µM each time. Further, the TGI in assay [8], in assay [9] and in assay [10] was more than 100 µM throughout.
For `CCC1CN2C(=N1)c1ccccc1-c1cc(Cl)ccc12` (stereo unspecified), the GI50 in assay [1] is 1.75 µM; in assay [2], 2.97 µM; in assay [4], 2.8 µM; in assay [5], 3.78 µM; in assay [6], 3.7 µM; in [7] it was 3.97 µM. The GI50 in [8] is 3.88 µM; in assay [9], 5.85 µM; in assay [10] it was 3.18 µM. Further, the TGI in assay [1] turned out to be 4.21 µM; in [2], 8.87 µM; in assay [4] it was 8.15 µM; in [5], 15.2 µM; in assay [6], 18.4 µM; in [7] it was 28.6 µM. Besides, the TGI in assay [8] worked out at 14.8 µM; in [9], 30.5 µM; in assay [10], 11.6 µM.
`COC1/C=C/C(C)C(C(C)C(OC)C(C)CCC(=O)C(C)C(C/C=C/N(C)C=O)OC)OC(=O)/C=C/C=C(\C)CC(OC)CC2=CC(=O)O[C@H](C2)C(C)C(OC)CC(OC)/C=C/C(C)C(OC)C1` (stereo partly specified): the GI50 in assay [1] is 0.0282 µM; in [2], 0.0178 µM; in assay [3], 0.0161 µM; in [4] it was 0.0213 µM; in assay [5], 0.0919 µM; in assay [6], 0.102 µM. Moreover, the results for the GI50 in assay [7], in assay [9] and in assay [10] were 0.0108 µM, 0.052 µM and 0.0122 µM, respectively. For the same compound, the TGI is 0.0449 µM and 0.0169 µM in [2]; 0.0489 µM and 0.0313 µM in [3]; 0.0582 µM and 0.0315 µM in assay [4]; 0.499 µM and 0.171 µM in assay [5]; 0.212 µM and 0.0904 µM in assay [9]; 0.0289 µM in [10].
